From the supplement of paper PMC10307832

Tests used:
Experiment in all cases: relative viability (nuclei count vs DMSO), 5 days (fraction); higher = more cells survive
BI-2536 + Palbociclib = compound: CC[C@@H]1C(=O)N(C)c2cnc(Nc3ccc(C(=O)NC4CCN(C)CC4)cc3OC)nc2N1C1CCCC1 [BI-2536] + CC(=O)c1c(C)c2cnc(Nc3ccc(N4CCNCC4)cn3)nc2n(C2CCCC2)c1=O [Palbociclib] (partner 0.5 µM)
In short: (§1)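 Lung cancer cell lines in 1536-well plates were dosed by pin tool the day after seeding, either with one drug alone or with a fixed anchor-drug dose plus five library-drug doses (not always all listed) in √10 steps. After 5 days, cells were fixed and their nuclei stained in one step (final 0.05% Triton X-100, 1% formaldehyde, 1 ug/ml Hoechst), then counted on 4× images. Relative viability is the nuclei count in treated wells divided by that in vehicle wells. Values are medians of duplicate plates.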

[1] = compound: CC1CC(=O)N(C2=CN=C(N=C2N1C3CCCC3)NC4=C(C=C(C=C4)C(=O)NC5CCN(CC5)C)OC)C [NPK76-II-72-1] + Cc1nc(NC(=O)N2CCC[C@H]2C(N)=O)sc1-c1ccnc(C(C)(C)C(F)(F)F)c1 [Alpelisib] (partner 2 µM)
In short: as §1

BI-2536 + AZD7762 = compound: CC[C@@H]1C(=O)N(C)c2cnc(Nc3ccc(C(=O)NC4CCN(C)CC4)cc3OC)nc2N1C1CCCC1 [BI-2536] + NC(=O)Nc1cc(-c2cccc(F)c2)sc1C(=O)N[C@H]1CCCNC1 [AZD7762] (partner 0.2 µM)
In short: as §1

BI-2536 + Bortezomib = compound: CC[C@@H]1C(=O)N(C)c2cnc(Nc3ccc(C(=O)NC4CCN(C)CC4)cc3OC)nc2N1C1CCCC1 [BI-2536] + CC(C)C[C@H](NC(=O)[C@H](Cc1ccccc1)NC(=O)c1cnccn1)B(O)O [Bortezomib] (partner 0.002 µM)
In short: as §1

Cell Line	relative viability (BI-2536 + Palbociclib; first compound 0.01 µM)	relative viability (BI-2536 + Palbociclib; first compound 0.03162 µM)	relative viability (BI-2536 + Palbociclib; first compound 0.1 µM)	relative viability (BI-2536 + Palbociclib; first compound 0.3162 µM)	relative viability (BI-2536 + Palbociclib; first compound 1 µM)	relative viability ([1]; first compound 0.01 µM)	relative viability ([1]; first compound 0.03162 µM)	relative viability ([1]; first compound 0.1 µM)	relative viability ([1]; first compound 0.3162 µM)	relative viability ([1]; first compound 1 µM)	relative viability (BI-2536 + AZD7762; first compound 0.01 µM)	relative viability (BI-2536 + AZD7762; first compound 0.03162 µM)	relative viability (BI-2536 + AZD7762; first compound 0.1 µM)	relative viability (BI-2536 + AZD7762; first compound 0.3162 µM)	relative viability (BI-2536 + AZD7762; first compound 1 µM)	relative viability (BI-2536 + Bortezomib; first compound 0.01 µM)	relative viability (BI-2536 + Bortezomib; first compound 0.03162 µM)	relative viability (BI-2536 + Bortezomib; first compound 0.1 µM)	relative viability (BI-2536 + Bortezomib; first compound 0.3162 µM)	relative viability (BI-2536 + Bortezomib; first compound 1 µM)
EMC-BAC-2	0.514	0.502	0.455	0.257	0.297	0.723	0.764	0.786	0.668	0.774	1.05	1.21	0.777	0.269	0.277	1.08	1.11	1.06	0.628	0.172
LU99A	0.37	0.445	0.318	0.152	0.147	0.462	0.578	0.576	0.48	0.563	0.309	0.334	0.111	0.145	0.102	1.04	1.12	0.244	0.19	0.193
ABC-1	0.561	0.629	0.374	0.358	0.423	0.839	0.982	1.11	0.953	1	0.576	0.871		0.922	0.301	0.252	0.29	0.265	0.242	0.213
NCI-H2347	0.471	0.426	0.369	0.385	0.387	0.992	1	1.07	1.07	1.11	0.647	0.643	0.73	0.545	0.325	0.864	0.963	0.859	0.482	0.476
NCI-H1993	0.623	0.714	0.5	0.468	0.427	0.706	0.65	0.62	0.655	0.664	0.734	0.668	0.407	0.53	0.348	1.2	1	0.536	0.696	0.646
NCI-H322M	0.503	0.436	0.462	0.447	0.395	0.781	0.73	0.766	0.922	0.818	0.61	0.53	0.496	0.394	0.406	1.32	1.22	1.34	1.34	0.311
NCI-H838	0.214	0.202	0.199	0.0979	0.0994	0.974	0.942	0.972	0.948	1.02	0.905	0.803	0.831	0.634	0.634	0.878	0.824	0.16	0.115	0.111
HARA	0.265	0.346	0.295	0.151	0.136	0.783	0.975	0.822	0.523	0.983	0.325	0.424	0.167	0.158	0.137	1.19	1.27	0.751	0.0898	0.0779
NCI-H2087	0.225	0.189	0.203	0.0781	0.118	1.1	1.1	1.07	1.01	1.48	1.26	1.45	1.23	0.111	0.114	0.858	0.677	0.693	0.128	0.139
NCI-H1437	0.332	0.281	0.273	0.159	0.197	0.972	0.945	0.974	0.898	1	1.01	0.892	1.03	0.141	0.163	0.543	0.463	0.416	0.136	0.089
NCI-H1792	0.72	0.706	0.76	0.349	0.215	0.747	0.793	0.668	0.711	0.767	0.704	0.692	0.415	0.0392	0.0281	0.985	1	1.06	0.716	0.147
NCI-H650	0.315	0.274	0.294	0.187	0.138	1.15	1.23	0.952		1.13	0.944	1.4	0.541	0.201	0.138	0.73	0.563	0.233	0.19	0.126
201T	0.367	0.344	0.347	0.314	0.287	1.02	1.04	1.02	0.999	1.09	0.609	0.647	0.588	0.33	0.255	1.11	1.12	1.07	1.09	0.367
HCC-44	1.05	0.959	0.947	0.404	0.312	0.771	0.854	0.76	0.789	0.809	1.08	1.06	0.978	0.655	0.361	0.905	0.885	0.297	0.14	0.0751
H3255	0.341	0.299	0.314	0.248	0.259	0.683	0.663	0.721		0.934	0.951	0.728	0.66	0.228	0.298	0.824	0.679	0.36	0.241	0.276
NCI-H647	0.265	0.473	0.266	0.0799	0.06	0.985	1.28		1.02	1.18	0.542	0.308	0.257	0.0341	0.0503	0.799	0.888	0.457	0.0877	0.087

Cell Line	relative viability (BI-2536 + Palbociclib; first compound 0.01 µM)	relative viability (BI-2536 + Palbociclib; first compound 0.03162 µM)	relative viability (BI-2536 + Palbociclib; first compound 0.1 µM)	relative viability (BI-2536 + Palbociclib; first compound 0.3162 µM)	relative viability (BI-2536 + Palbociclib; first compound 1 µM)	relative viability ([1]; first compound 0.01 µM)	relative viability ([1]; first compound 0.03162 µM)	relative viability ([1]; first compound 0.1 µM)	relative viability ([1]; first compound 0.3162 µM)	relative viability ([1]; first compound 1 µM)	relative viability (BI-2536 + AZD7762; first compound 0.01 µM)	relative viability (BI-2536 + AZD7762; first compound 0.03162 µM)	relative viability (BI-2536 + AZD7762; first compound 0.1 µM)	relative viability (BI-2536 + AZD7762; first compound 0.3162 µM)	relative viability (BI-2536 + AZD7762; first compound 1 µM)	relative viability (BI-2536 + Bortezomib; first compound 0.01 µM)	relative viability (BI-2536 + Bortezomib; first compound 0.03162 µM)	relative viability (BI-2536 + Bortezomib; first compound 0.1 µM)	relative viability (BI-2536 + Bortezomib; first compound 0.3162 µM)	relative viability (BI-2536 + Bortezomib; first compound 1 µM)
NCI-H23	0.465	0.528	0.304	0.146	0.111	0.759	0.871		0.657	0.804	0.236	0.236	0.127	0.12	0.088	1.14	0.885	0.182	0.117	0.139
NCI-H460	0.264	0.15	0.14	0.0134	0.0152	0.469	0.541	0.478	0.442	0.497	0.724	0.649	0.473	0.0346	0.0318	1.21	0.65	0.265	0.0115	0.0118
EKVX	0.416	0.404	0.37	0.182	0.173	0.796	0.897	0.884	0.716	1.1	0.613	0.877	0.63	0.614	0.276	0.976	1.16	1.03	0.164	0.148
EPLC-272H	0.293	0.315	0.234	0.168	0.152	0.854	0.88	0.964	0.928	0.88	0.198	0.231	0.0832	0.0551	0.0884	0.939	0.891		0.786	0.101
NCI-H2126	0.324	0.368	0.352	0.276	0.232	0.759	0.81	0.752	0.71	0.734	1.01	1.09	0.855	0.428	0.223	1.19	1.1	1.05	0.636	0.227
LXF-289	0.612	0.583	0.587	0.116	0.116	0.987	1.07	1.05	1.01	1.05	1	1.14	0.61	0.0819	0.083	0.991	0.91	0.485	0.0621	0.0527
NCI-H2405	0.514	0.509	0.359	0.284	0.349	0.654	0.853	0.753	0.744	0.921	0.698	0.624	0.269	0.303	0.289	0.829	1.04	0.588	0.632	0.723
NCI-H1755	0.473	0.477	0.424	0.377	0.385	0.883	0.983	0.91	0.896	0.938	0.452	0.467	0.305	0.253	0.265	0.9	0.891	0.355	0.308	0.262
HCC-78	0.566	0.475	0.431	0.436	0.318		0.402	0.334		0.337	0.75	0.576	0.687	0.433	0.249	0.505	0.559	0.487	0.352	0.219
LOU-NH91	0.477	0.51	0.472	0.331	0.317	0.682	0.72	0.719	0.563	0.814	0.722	0.76	0.42	0.316	0.329	0.506	0.496	0.458	0.287	0.334
NCI-H3122	0.191	0.175	0.171	0.132	0.159	0.709	0.724	0.789	0.838	0.776	0.939	1	0.204	0.139	0.117	0.982	1.01	0.43	0.231	0.242
HCC-827	0.467	0.435	0.467	0.267	0.186	0.942	0.931	0.988	1.02	1.09	0.234	0.217	0.186	0.182	0.14	1.07	0.971	0.974	0.638	0.377
NCI-H1975	0.349	0.648	0.461	0.14	0.158	0.569	0.691	0.592	0.622	0.665	0.726	0.568	0.639	0.236	0.177	0.318	0.248	0.243	0.144	0.117
NCI-H1651	0.5	0.505	0.514	0.41	0.0953	0.887	1.03	0.893	0.852	1.04	0.476	0.543	0.392	0.261	0.0882	0.898	0.98	0.894	0.583	0.11
NCI-H441	0.201	0.203	0.183	0.132	0.122	0.536	0.648	0.866	0.767	0.901	0.977	1.21	0.228	0.174	0.21	0.333	0.719	0.209	0.152	0.177
LCLC-103H	0.473	0.508	0.421	0.371	0.294	0.929	0.928	1.07	0.925	0.993	0.804	0.826	0.605	0.244	0.169	1.05	1.07	0.813	0.986	0.19
